Experimental data published in US20190365788A1, “CYCLIC PHOSPHATE SUBSTITUTED NUCLEOSIDE DERIVATIVES FOR THE TREATMENT OF LIVER DISEASES” (priority 2016, published 2019).
Where two headings read alike, the source gives them in different places.

Experiments:
HepG2 cells = assay: In vitro inhibition of HepG2 cells (MTT proliferation assay); assay type: cell-based; conditions: 72 h incubation, absorbance 570 nm, read-out: HepG2: Relative IC50
Description: (§1) The compounds of the invention were tested in cell based in vitro assays comprising HuH-1 cells and HepG2 cells, as in vitro models for potential hepatocellular carcinoma activity.
(§2) HuH-1 cells were purchased from JCRB, HepG2 cells from ATCC, and both tested with the following method:
(§3) Cells are suspended at a specific density in a specific culture medium. Then, 100 μl of cell suspension are plated per well in 96-well plates.
(§4) Compounds or negative controls (DMSO) are added to the cells (100 μl of a compound solution in its specific medium with a final concentration of 0.15% DMSO). Each compound concentration is tested in duplicate (6 concentrations per compound). Cells are incubated at 37° C. for 72 h without treating again.
(§5) SDS is added to control wells (final concentration of 1%) and kept for 15 min at 37° C. SDS 1% represents the positive control of proliferation inhibition. Cell supernatant is removed and 100 μl of a MTT (3-[4.5-dimethylthiazol-2-yl]-2.5-diphenyltetrazolium bromide) solution in fresh medium are added per well (MTT final concentration of 0.5 mg/ml) and incubated for 4 h at 37° C. MTT reaction is stopped and homogenized by adding 100 μl/well of SDS 10%, 0.01M HCl and incubated for 2 h at 37° C. Absorbance is measured at 570 nm.

HuH-1 cells = assay: In vitro inhibition of HuH-1 cells (MTT proliferation assay); assay type: cell-based; conditions: 72 h incubation, absorbance 570 nm, read-out: HuH-1: Relative IC50
Description: as §1, §2, §3, §4, §5

Human Hepatocytes = assay: In vitro conversion of prodrug to nucleoside triphosphate (NTP) in human hepatocytes; assay type: in vitro ADME; conditions: 1 hour at 10 μM prodrug, intracellular NTP
Description: The degree of conversion of a prodrug compound of the present invention to its corresponding nucleoside triphosphate (NTP) can be measured in vitro using the procedure described below.
A 2 mM stock solution of the prodrug test compound is prepared in 5% DMSO/95% MeOH to provide a final sample concentration of […]. A 5 μL aliquot is removed from this stock solution and added to 1 mL of either a rat or human cryopreserved hepatocyte sample to provide a control sample at concentration of 1 million cells/mL. This sample is assayed in triplicate and used as a test sample.
Human and rat hepatocytes are removed from liquid nitrogen storage and thawed by submerging the hepatocyte tube into a pre-heated 37° C. waterbath and gently shaking the tube back & forth until thawed. The thawed hepatocytes are then gently poured into a container of Hepatocyte Basal Medium (50 mL, pre-warmed to 37° C.) and washed. The hepatocyte tube is then rinsed out with pre-warmed Hepatocyte Basal Medium and the washed hepatocytes and rinse are combined and centrifuged at 500 rpm for 4 minutes at room temperature. The supernatant is then discarded and the resulting hepatocyte pellet is resuspended with Hepatocyte Basal Medium (pre-warmed to 37° C.) and the final hepatocyte concentration is adjusted to 1 million cells/mL to provide the final hepatocyte suspension.
A 1 mL aliquot is removed from the 1 million cells/mL final hepatocyte suspension, analyzed in triplicate and placed into 20 mL scintillation vial without a cap. 2 mM of the prodrug test sample is then added into the hepatocyte suspension to provide a 10 μM final concentration in the 1 mL hepatocyte sample. […]
The incubated hepatocyte suspension samples are transferred to a microcentrifuge tube using a transfer pipette and centrifuged at 500 rpm for 4 minutes at room temperature. […] The resulting extract solution is then stored in a refrigerator at 4° C. until ready for use, at which point the sample is first subjected to vortexing/sonication to ensure that all hepatocyte cells have burst. […]

Structure (SMILES)	IC50 (HepG2 cells; Homo sapiens) [nM]	IC50 (HuH-1 cells; Homo sapiens) [nM]	Human Hepatocyte 1 hour at 10 μM, NTP (Human Hepatocytes)	other results
COc1nc(N)nc2c1ncn2[C@@H]1O[C@@H]2COP(=O)(OCC[C@@H](C)C(=O)OC(C)C)O[C@H]2[C@@H]1O (mixture of isomers) [Mixture 5A/5B, Isopropyl (R)-4-(((2S,4aR,6R,7S,7aS)-6-(2-amino-6-methoxy-9H-purin-9-yl)-7-hydroxy-2-oxidotetrahydro-4H-furo[3,2-d][1,3,2]dioxaphosphinin-2-yl)oxy)-2-methylbutanoate and Isopropyl (R)-4-(((2R,4aR,6R,7S,7aS)-6-(2-amino-6-methoxy-9H-purin-9-yl)-7-hydroxy-2-oxidotetrahydro-4H-furo[3,2-d][1,3,2]dioxaphosphinin-2-yl)oxy)-2-methylbutanoate]	≥ 5000	≥ 5000		
CC(C)OC(=O)C(C)CCOP1(=O)OC[C@H]2O[C@@H](n3cc(C(F)(F)F)c(=O)[nH]c3=O)C[C@@H]2O1 (mixture of isomers) [Mixture 6A/6B, Isopropyl 4-(((2S,4aR,6R,7aS)-6-(2,4-dioxo-5-(trifluoromethyl)-3,4-dihydropyrimidin-1 (2H)-yl)-2-oxidotetrahydro-4H-furo[3,2-d][1,3,2]dioxaphosphinin-2-yl)oxy)-2-methylbutanoate and Isopropyl 4-(((2R,4aR,6R,7aS)-6-(2,4-dioxo-5-(trifluoromethyl)-3,4-dihydropyrimidin-1 (2H)-yl)-2-oxidotetrahydro-4H-furo[3,2-d][1,3,2]dioxaphosphinin-2-yl)oxy)-2-methylbutanoate]	≥ 5000	≥ 5000		
CCOC(=O)[C@H](C)CCOP1(=O)OC[C@H]2S[C@@H](n3ccc(N)nc3=O)[C@@H](F)[C@@H]2O1 (single isomer, unassigned) [Compound 1 Diastereoisomer 1]		< 500		
CCOC(=O)[C@H](C)CCOP1(=O)OC[C@H]2S[C@@H](n3ccc(N)nc3=O)[C@@H](F)[C@@H]2O1 (single isomer, unassigned) [Compound 1 Diastereoisomer 2]			A (A=<0.5 μM)	
CC(C)OC(=O)[C@H](C)CCOP1(=O)OC[C@H]2S[C@@H](n3ccc(N)nc3=O)[C@@H](F)[C@@H]2O1 (single isomer, unassigned) [Compound 2 Diastereoisomer 1]		< 500		
CC(C)OC(=O)[C@H](C)CCOP1(=O)OC[C@H]2S[C@@H](n3ccc(N)nc3=O)[C@@H](F)[C@@H]2O1 (single isomer, unassigned) [Compound 2 Diastereoisomer 2]	500 to 5000		A (A=<0.5 μM)	IC50 (HuH-1 cells): < 500 nM
CC(C)OC(=O)[C@@H](C)CCO[P@@]1(=O)OC[C@H]2O[C@@H](n3cnc4c(N)nc(Cl)nc43)C[C@@H]2O1.CC(C)OC(=O)[C@@H](C)CCO[P@]1(=O)OC[C@H]2O[C@@H](n3cnc4c(N)nc(Cl)nc43)C[C@@H]2O1 (single isomer, unassigned; diastereoisomer 1) [Compound 3 Diastereoisomer 1]				IC50 (HepG2 cells): < 500 nM; IC50 (HuH-1 cells): 500 to 5000 nM
CC(C)OC(=O)[C@H](C)CCOP1(=O)OC[C@H]2O[C@@H](n3ccc(NC(=O)c4ccccc4)nc3=O)C(F)(F)[C@@H]2O1 (stereo partly drawn) [Compound 10, Isopropyl (2R)-4-(((4aR,6R,7aR)-6-(4-benzamido-2-oxopyrimidin-1(2H)-yl)-7,7-difluoro-2-oxidotetrahydro-4H-furo[3,2-d][1,3,2]dioxaphosphinin-2-yl)oxy)-2-methylbutanoate]			C (C=≥1 μM)	
